Measurements taken from patent US9944721B2, “Polysialic acid and use for treatment of neurodegenerative and neuroinflammatory diseases” (RHEINISCHE FRIEDRICH-WILHELMS UNIVERSITÄT BONN, priority 2013, dated 2018).

Key:
Type in all cases: cell-based
[1] = tested on: human induced pluripotent stem cell derived microglia (iPSdM-1); test: Half maximum effective concentration for reduction of LPS-induced TNF-α gene transcript; details: LPS 1 μg/ml, 24 hours
Method: Human induced pluripotent stem cell derived microglia (iPSdM) were obtained from iPS cells. iPSdM-1 line was used in this study generated from the iLB-C-35m-r1 clone (Bonn). iPSdM-1 (here named microglia or microglial cells) were culture in N2-medium consisting of DMEM/F12 culture medium (Gibco) supplemented with 1% N2 (Invitrogen), 0.48 mM L-glutamine (Gibco) and 100 μg/ml penicillin/streptomycin (Gibco). Cells were cultured with high density and split 1:5. After splitting, cells recovered and attached again to the new dishes.
Cells were treated for 24 hours with 1 μg/ml lipopolysaccharides (LPS) and 5 nM, 15 nM, 50 nM, 150 nM, 500 nM, 1.5 μM, 5 μM, 15 μM, 50 μM or 150 μM of PSA-20. For gene transcript analysis of TNF-α, RNA was collected from cells via the RNeasy kit system (Quiagen) Reverse transcription of the RNA was performed using Super Script II reverse transcriptase (Life Technologies) and hexamer random primers (Roche). Quantitative RT-PCR with specific oligonucleotides was performed with SYBR Green PCR Master Mix (Qiagen) using the ABI 5700 Sequence Detection System (PerkinElmer). The qRT-PCR was running for 40 cycles with a Tm of 60° C. using the same primer as for the PCR. The […] method with GAPDH as internal standard was performed for qRT-PCR quantification.

[2] = tested on: LPS-activated human microglia; test: LPS-induced TNF-alpha gene transcription in human microglia (qRT-PCR); details: LPS 1 μg/ml, 24 hours
Method: To analyse whether polysialic acid might interfere with a pro-inflammatory phenotype of human microglia, cultured human microglia were activated with lipopolysaccharides (LPS) and the effect of the distinct sialic acid forms including fractions of oligosialic and polysialic acid on the gene transcription of the pro-inflammatory cytokine tumor necrosis factor-alpha induced by the bacterial toxin LPS was determined. A human microglial line derived from induced pluripotent stem cells as described in WO 2010/125110 was used to study the effect of sialic acid forms with different chain length. Human microglial cells were cultured on 5 μg/ml poly-L-lysin (PLL, Sigma)-coated dishes in N2-medium containing DMEM/F12 culture medium (Gibco) supplemented with 1% N2 (Invitrogen), 0.48 mM L-glutamine (Gibco) and optionally 100 μg/ml penicillin/streptomycin (Gibco). Cells were cultured with high density and splitted 1:2 when required. The human induced pluripotent stem cell derived microglia line was treated with lipopolysaccharides (LPS, 1 μg/ml, Invivogen) and sialic acid forms with different chain length for 24 hours. Gene transcripts for tumor necrosis factor-α (TNF-alpha) were determined by quantitative RT-PCR and normalized to GAPDH. In detail, RNA isolation was performed using RNeasy Mini Kit (Qiagen) and transcription with the SuperScript First-Strand Synthesis System (Invitrogen). Quantitative RT-PCR with specific oligonucleotides (GAPDH: […] (SEQ ID NO: 1) and […] (SEQ ID NO: 2); TNFα: […] (SEQ ID NO: 3) and […] (SEQ ID NO: 4)) was performed using SYBR green PCR Master Mix with the Mastercycler epgradients S (Eppendorf). Results were normalized to GAPDH. Quantification using the delta-CT method was carried out.

[3] = tested on: human microglia stimulated with neural debris or Drusen-like debris; test: Debris-induced superoxide release of human microglia (macular degeneration culture model, DHE)
Method: Second, effect of PSA-20 on microglia stimulated with neural cellular debris was analyzed. Drusen containing cellular debris is one characteristics of senile macular degeneration. To study the effect of degenerated material on the retinal microglia, we prepared neural debris by hypotonic and mechanic lysis of human neurons derived from induced pluripotent stem cells. Then, we treated the human microglial line derived from induced pluripotent stem cells and analyzed the effect of PSA-20. Superoxide release was determined by the fluorescent dye DHE. […] Cells were fixed with 4% paraformaldehyde plus 0.25% glutaraldehyde and analyzed by confocal microscopy. For the quantification of DHE staining intensity six pictures of each experiment were obtained and analyzed by ImageJ software (NIH). […] Cells were fixed and the intensity of DHE was quantified by confocal microscopy. […]
To obtain Drusen-like debris from the retina, human retinal pigment epithelium ARPE-19 cells were treated with 80 nM okadaic acid for 24 hours at 37° C. and 5% CO2, centrifuged, washed three times with PBS and the pellet was frozen at −20° C. […] Cells were fixed and the release of superoxide was quantified by the intensity of the DHE dye. […]

[4] = tested on: human macrophage cell line THP-1; test: LPS-induced TNF-alpha gene transcription in human macrophages; details: THP-1, LPS 1 μg/ml, 24 hours; 0.15 μM and 0.5 μM; FIG. 5B
Method: The human monocyte line THP-1 (ATCC TIB-202) was cultured in RPMI medium with 10% FCS, 1% sodium pyruvate and 1% penicillin/streptomycin (100×) (all Gibco, Invitrogen) in 75 ml cell culture flasks (Sarstedt). For differentiation into tissue macrophages the line was cultured for 3 hours in normal cell culture medium containing 0.5 μM phorbol 12-myristate 13-acetate (Sigma) and afterwards in phorbol 12-myristate 13-acetate free medium for at least 24 hours.
FIG. 5B illustrates the effect of low molecular weight PSA (PSA-20) on the pro-inflammatory cytokine TNF-alpha. The human macrophage cell line THP-1 was treated with lipopolysaccharides (LPS, 1 μg/ml) and PSA-20 (different concentrations) for 24 hours. Gene transcripts for tumor necrosis factor-α a (TNFα) were determined by quantitative RT-PCR and normalized to GAPDH. In detail, RNA isolation was performed using RNeasy Mini Kit (Qiagen) and transcription with the SuperScript First-Strand Synthesis System (Invitrogen). Quantitative RT-PCR with specific oligonucleotides (GAPDH: […] (SEQ ID NO: 1) and […] (SEQ ID NO: 2); TNFα: […] (SEQ ID NO: 3) and […] (SEQ ID NO: 4)) was performed using SYBR green PCR Master Mix with the Mastercycler epgradients S (Eppendorf). Results were normalized to GAPDH. Quantification using the delta-CT method was carried out.

- EC50 ([1]; read-out: EC50 in human microglia (reduction of LPS-induced TNF-α gene transcript by 50%)): 90 nM
Substance: poly-(α(2→8)Neu5Ac)n [PSA-20]
- concentration reducing the LPS-induced gene transcription of TNF-α ([1]; FIG. 10B): ≥ 0.05 µM
- LPS-induced gene transcription of TNF-alpha ([2]; 0.15 μM, 0.5 μM and 1.5 μM, FIG. 3): reduced
- Anti-inflammatory effect on TNF-alpha of LPS-activated human microglia ([2]; summary of Example 4): Yes
- relative superoxide production ([3]; Drusen-like debris from ARPE-19 cells, 10 μg/ml PSA-20, 30 minutes, without PSA-20 1.38+/−0.02, FIG. 7C): 0.92+/−0.22
- cellular neural debris induced superoxide production ([3]; neural debris from human neurons, FIG. 7B): prevented
- LPS-induced gene transcription of TNF-alpha [4]: reduced
